Non-standard residues stand in square brackets, D forms with d. No end group written: not given here. pS = N[C@@H](COP(=O)(O)O)C(=O)O
What was measured:
[1] = system: Healthy donor PBMC; assay: Cultured IFNγ ELISpot on day 7, healthy donor PBMC; type: cell-based, human; conditions: day 7, HLA-matched healthy donors
Procedure: Healthy donor PBMC responses to the CRC tumor-specific phosphopeptides were assessed using a cultured IFNγ ELISpot on day 7.
Generally, quantification of T cell IFNγ production in response to peptides was performed by ELISpot as per manufacturer's instructions. In brief, ELISpotPRO wells, pre-coated with IFNγ monoclonal antibody mAb 1-D1K (MabTech, product code: 3420-2APW-2), were washed four times with sterile PBS and blocked for 30 minutes with 200 μl 10% RPMI 1640 after which the blocking medium was removed.
For ELISpot analysis, PBMCs and CD8+ T cells were isolated fresh from healthy donors and patients. 1×10^6 PBMCs were isolated from both disease patients and healthy donors and re-suspended in AIM-V media (10% human AB serum) in a 96 well plate. Peptide or phosphopeptides were added individually at 10 μg/ml and placed at 37° C. in CO2 incubator for 7 days. Cells were then harvested, washed four times, and re-challenged with either phosphopeptides, peptides, anti CD3 (OKT3, 100 ng/ml, Mabtech) as per manufacturer's instructions. Individual cytokine-producing cells were identified as dark spots after a 15 minute reaction with 5-bromo-4-chloro-3-indolyl phosphate and NBT by means of an alkaline phosphatase conjugate substrate (Mabtech).

[2] = system: CRC cell line SW620; assay: Killing of CRC cell line by phosphopeptide-specific T cell lines; type: cell-based, human; conditions: T cell lines established against the phosphopeptide
Source text: T cells lines were established against some of these key phosphopeptide targets.

[3] = system: Tumor infiltrating lymphocytes (TILs); assay: TIL responses to phosphopeptides, multiplexed intracellular cytokine staining for IL-2, IFNγ, TNFα; type: cell-based, human
Procedure: Tumor infiltrating lymphocytes (“TILs”) from the same tumors, were extracted and expanded, and their responses to the phosphopeptides assessed using multiplexed intracellular cytokine staining for IL-2, IFNγ, and TNFα as depicted in FIG. 1A.
Tumor infiltrating lymphocytes (TILs) were also taken from the patient tumors at resection and expanded, using high-dose IL-2 (6000 IU/ml). TIL responses to the phosphopeptides were then tested using ICS. TILs were stimulated with phosphopeptide and cultured for 7 days before being re-stimulated in an intracellular cytokine staining assay assessing production of tumor necrosis factor alpha (TNFα), interferon gamma (IFNγ) and interleukin-2 (IL-2). The results are depicted in FIG. 6.

[4] = system: CD8+ T cells; assay: Immunization of HLA-A2 transgenic mice with phosphopeptide; type: in vivo, mouse; conditions: immunization with the phosphopeptide
Procedure: In some embodiments, the immunogenicity of a target peptide is measured using transgenic mice expressing human MHC class I genes. For example, “ADD Tg mice” express an interspecies hybrid class I MHC gene, AAD, which contains the α-1 and α-2 domains of the human HLA-A2.1 gene and the α-3 transmembrane and cytoplasmic domains of the mouse H-2Dd gene, under the transcriptional control of the human HLA-A2.1 promoter. Immunodetection of the HLA-A2.1 recombinant transgene established that expression was at equivalent levels to endogenous mouse class I molecules. The mouse α-3 domain expression enhances the immune response in this system. Compared to unmodified HLA-A2.1, the chimeric HLA-A2.1/H2-Dd MHC Class I molecule mediates efficient positive selection of mouse T cells to provide a more complete T cell repertoire capable of recognizing peptides presented by HLA-A2.1 Class I molecules.
The peptide epitopes presented and recognized by mouse T cells in the context of the HLA-A2.1/H2-Dd class I molecule are the same as those presented in HLA-A2.1^+ humans. […]
In some embodiments, the immunogenicity of a modified phosphopeptide is determined by the degree of Interferon gamma (IFNγ) and/or tumor necrosis factor-alpha (TNF-α) production of T cells from ADD Tg mice immunized with the target peptide, e.g., by immunization with target peptide pulsed bone marrow derived dendritic cells. […]

[5] = system: human melanoma and breast tumors; assay: Recognition and killing of tumors in vitro by phosphopeptide-specific CD8+ T cells; type: cell-based
Source text: (§1) IRS proteins are adapter proteins that link signaling from upstream activators to multiple downstream effectors to modulate normal growth, metabolism, survival and differentiation.

[6] = system: xenograft tumor; assay: Xenograft tumor model system; type: in vivo
Source text: as §1

[7] = system: memory T cells; assay: Phosphopeptide-specific memory T cell response in a patient; type: cell-based, human
Source text: The phrase “capable of inducing a target peptide-specific memory T cell response in a patient” as used herein relates to eliciting a response from memory T cells (also referred to as “antigen-experienced T cell”), which are a subset of infection- and cancer-fighting T cells that have previously encountered and responded to their cognate antigen. Such T cells can recognize foreign invaders, such as bacteria or viruses, as well as cancer cells. Memory T cells have become “experienced” by having encountered antigen during a prior infection, having encountered cancer, or via previous vaccination. At a second encounter with the cognate antigen (e.g., by way of an initial inoculation with a target peptide of the presently disclosed subject matter), memory T cells can reproduce to mount a faster and stronger immune response than the first time the immune system responded to the invader (e.g., through the body's own consciously unperceived recognition of a target peptide being associated with diseased tissue). This behavior can be assayed in T lymphocyte proliferation assays, which can reveal exposure to specific antigens.
Tensin 3 (TNS3) plays a role in actin remodeling. It is involved in the dissociation of the integrin-tensin-actin complex. EGF activates TNS4 and down-regulates TNS3 which results in capping the tail of ITGB1. […]

LPIFSRLsI (LPIFSRL[pS]I; listed as Homo sapiens) [ZFP36L2]
Healthy donor PBMC responses, IFNγ ELISpot [1]: many responses were seen
Killing of SW620 by phosphopeptide-specific T cell line [2]: specifically kill

RPRARsVDAL (RPRAR[pS]VDAL; listed as Homo sapiens) [LISCH7]
TIL response ([3]; TILs from the tumor from which the phosphopeptides were identified, equivalent to the EBV peptide response): ~2 % of TILs

RTHsLLLLL (RTH[pS]LLLLL; listed as Homo sapiens) [RNASE4]
Healthy donor PBMC responses, IFNγ ELISpot [1]: many responses were seen

RTMsEAALVRK (RTM[pS]EAALVRK; listed as Homo sapiens) [RASSF6]
TIL responses to phosphopeptide (IL-2, IFNγ, TNFα) ([3]; TILs extracted from tumors and expanded): responses were seen

RVAsPTSGV (RVA[pS]PTSGV; listed as Homo sapiens) [IRS2 (A2), HLA-A*0201 phosphopeptide from insulin receptor substrate 2]
Killing of SW620 by phosphopeptide-specific T cell line [2]: specifically kill
Generation of phosphopeptide-specific CD8+ T cells [4]: can be generated
Recognition and killing of human melanoma and breast tumors by the T cells [5]: capable of recognizing and killing
Tumor growth control by the T cells [6]: controlled tumor growth

VMIGsPKKV (VMIG[pS]PKKV; listed as Homo sapiens) [Tensin 3 phosphopeptide]
Phosphopeptide-specific memory T cell response [7]: capable of inducing a strong phosphopeptide-specific memory T cell response

From patent US10682399B2, “Target peptides for colorectal cancer therapy and diagnostics” (University of Virginia Patent Foundation, priority 2012, dated 2020)
